Experimental data reported in US6479487B1, “6, 9-disubstituted 2-[trans-(4-aminocyclohexyl)amino] purines” (Aventis Pharmaceuticals Inc., priority 1998, dated 2002).
Values joined by “and” are separate entries in the source; they are usually repeats but may differ in a detail not shown here. Equal entries are not always repeated. Structures can show the parent of a compound that is named as a salt. Where two headings read alike, the source gives them in different places.

What was measured:
[1] = biological target: T1, cdk2/cyclin E (Homo sapiens, UniProt P24941); test: Cyclin-Dependent Kinase 2 Assay (cdk2/cyclin E, GST-Rb substrate); format: biochemical; settings: recombinant cdk2/cyclin E, 10 μM ATP, 30 min at 30° C., several values in a cell = separate determinations, read-out: CDK-2 Inhibition IC50
T1 construct: made in house; host or cells: insect cells (baculovirus co-infection)
Procedure: Substrate: GST-Rb as described above for cdk4/cyclin D1
Assay conditions for cdk2/cyclin E were identical to those for cdk4/cyclin D1 including the substrate. The concentration of recombinant cdk2/cyclin E in the assay was 0.1 μg per 100 μl assay. Incubation was for 30 min at 30° C.

[2] = biological target: T2, cdk4/cyclin D1 (Homo sapiens, UniProt P11802); test: Cyclin-dependent Kinase 4 Assay (cdk4/cyclin D1, GST-Rb substrate); format: biochemical; settings: cdk4/cyclin D1 insect cell lysate, 10 μM ATP, 30 min at 37° C., several values = separate determinations, read-out: CDK4 Inhibition IC50
T2 construct: made in house; host or cells: Sf9 insect cells (Bac-to-Bac baculovirus, pFastBac)
Procedure: The IC50 values for cdk4 inhibition were by the following method:
The transformed bacteria were grown overnight to saturation, then diluted in YT broth and incubated at 37° C. for 2 h. The protein was induced by incubation with 0.1 mM isopropylthioglycoside for 3 h. Following sedimentation by centrifugation, the cells were lysed by sonication in STE buffer ([…] NaCl, 10 mM Tris, pH 8.0, 1 mM EDTA) containing 10% sarkosyl. Particulate matter was removed by centrifugation and the lysate was incubated with glutathione-Sepharose at 4° C. The beads were washed with kinase buffer and then quantitation of Coomassie blue-stained proteins separated by SDS-PAGE was performed using a protein standard of known concentration.
The cDNA for human cyclin D1 was cloned by RT PCR using […] from MCF-7 cells. […] Bacmid DNA was used to transfect Sf9 insect cells to produce recombinant virus. Following plaque purification of the virus, the viral preparations were amplified until high titer stocks were acheived.
Lysates were prepared by lysis of Sf9 cells coinfected with cdk4 and cyclin D1 in 50 mM HEPES, pH 7.5, 10 mM MgCl2, 1 mM DTT, 0.1 mM phenylmethylsulfonyl fluoride, 5 μg/ml aprotinin, and 5 μg/ml leupeptin using a PARR bomb under 500 p.s.i nitrogen pressure for 5 min at 4° C. Insoluble material was sedimented at 10,000×g for 20 min at 4° C. Glycerol was added to the supernatant to 10% and stored at −80° C. in aliquots.
Pre-wet Millipore Multiscreen 96-well filter plates (0.65 μm Durapore filters) with 200 μl kinase buffer (50 mM HEPES, pH 7.5, 10 mM MgCl2, 1 mM EGTA). GST-Rb (0.5 μg) bound to glutathione-Sepharose beads is added in 50 μl per well and the solution removed by application of vacuum. […] Add 0.1 μg cdk4/cyclin D1 (insect cell lysate) to initiate assay. Incubate 30 min at 37° C. Terminate reaction by filtration on Millipore Vacuum Manifold. Wash four times with TNEN (20 mM Tris, pH 8.0, 100 mM Na Cl, 1 mM EDTA, 0.5% nonidet P-40). After drying the plates at room temperature, the filter plates were placed in adapter plates (Packard) and 40 μl of Microscint-O® (Packard) was added to each well. Top Seal A film was used to cover the plates before counting in a Top Count Scintillation Counter.

[3] = system: MDA-MB-435; test: In vitro tumor cell proliferation, MDA-MB-435; format: cell-based; settings: values given with an undefined *, read-out: In vitro Tumor Cell Proliferation (IC50, μM) Breast MDA-MB-435
Procedure: (§1) The proliferation of tumor cells was measured using a sulforhodamine B assay as described in Skehan, P., et al., J. Natl. Cancer Inst. […] Tumor cells were harvested with trypsin-EDTA, cells that excluded trypan blue were counted, added to 96-well plates and incubated overnight at 37° C. Drug was added to the wells following dilution in culture medium. Three days later, the medium was removed and replenished with medium containing fresh drug and incubated an additional 4 days. The cells were then fixed with 0.1 ml 10% trichloroacetic acid for 60 min at 4° C. The plates were rinsed five times with tap water, air-dried and stained for 30 min with 0.4% sulforhodamine B in 1% acetic acid and air-dried.
(§2) Alternatively, the CyQUANT cell proliferation assay was used to quantitate cell proliferation.
(§3) Alternatively, the CyQUANT cell proliferation assay was used to quantify tumor cell proliferation. Tumor cells were harvested with trypsin-EDTA, cells that excluded trypan blue were counted, added to 96-well plates and incubated overnight at 37° C. Drug was added to the wells following dilution in culture medium. Three days later the medium was removed and the plates frozen at −80° C. for at least 30 minutes.

[4] = system: HT-29; test: In vitro tumor cell proliferation, HT-29; format: cell-based, human; settings: many values given with an undefined *, read-out: In vitro Tumor Cell Proliferation (IC50, μM) Colon HT-29
Procedure: as §1, §2, §3
HT-29 is a human colon adenocarcinoma, moderately well-differentiated grade II (HTB 38);

[5] = system: A549; test: In vitro tumor cell proliferation, A549; format: cell-based, human; settings: many values given with an undefined *, read-out: In vitro Tumor Cell Proliferation (IC50, μM) Lung A549
Procedure: as §1, §2, §3

[6] = system: Colo-205; test: In vitro tumor cell proliferation, Colo-205; format: cell-based; settings: values given with an undefined *, read-out: In vitro Tumor Cell Proliferation (IC50, μM) Colon Colo-205
Procedure: as §1, §2, §3

[7] = system: DMS-114; test: In vitro tumor cell proliferation, DMS-114; format: cell-based, human; settings: many values given with an undefined *, read-out: In vitro Tumor Cell Proliferation (IC50, μM) Lung DMS-114
Procedure: DMS-1 14: human small cell lung carcinoma;
as §1, §2, §3

[8] = system: PC-3; test: In vitro tumor cell proliferation, PC-3; format: cell-based, human; settings: many values given with an undefined *, read-out: In vitro Tumor Cell Proliferation (IC50, μM) Prostate PC-3
Procedure: as §1, §2, §3

[9] = system: DU145; test: In vitro tumor cell proliferation, DU145; format: cell-based, human; settings: many values given with an undefined *, read-out: In vitro Tumor Cell Proliferation (IC50, μM) Prostate DU145
Procedure: as §1, §2, §3

[10] = system: MDA-MB-231; test: In vitro tumor cell proliferation, MDA-MB-231; format: cell-based, human; settings: sulforhodamine B or CyQUANT assay, many values given with an undefined *, read-out: In vitro Tumor Cell Proliferation (IC50, μM) Breast MDA-MB-231
Procedure: as §1, §2, §3
MDA-MB-23 1 is a human breast adenocarcinoma, hormone-independent (HTB 26);

[11] = Homo sapiens, MDA-MB-435, MDA-MB-435
[12] = Homo sapiens, COLO 205, Colo-205
[13] = Homo sapiens, MDA-MB-231, MDA-MB-231

T2 sequence (P11802 whole entry): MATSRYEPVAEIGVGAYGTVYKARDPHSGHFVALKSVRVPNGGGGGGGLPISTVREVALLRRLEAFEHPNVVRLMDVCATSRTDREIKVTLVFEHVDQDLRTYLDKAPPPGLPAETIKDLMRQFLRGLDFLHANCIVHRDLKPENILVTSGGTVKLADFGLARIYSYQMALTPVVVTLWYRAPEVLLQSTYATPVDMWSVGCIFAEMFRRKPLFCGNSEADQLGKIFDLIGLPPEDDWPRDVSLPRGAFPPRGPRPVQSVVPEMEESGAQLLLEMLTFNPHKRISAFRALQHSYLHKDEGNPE
T2 sequence (P24385 whole entry partner): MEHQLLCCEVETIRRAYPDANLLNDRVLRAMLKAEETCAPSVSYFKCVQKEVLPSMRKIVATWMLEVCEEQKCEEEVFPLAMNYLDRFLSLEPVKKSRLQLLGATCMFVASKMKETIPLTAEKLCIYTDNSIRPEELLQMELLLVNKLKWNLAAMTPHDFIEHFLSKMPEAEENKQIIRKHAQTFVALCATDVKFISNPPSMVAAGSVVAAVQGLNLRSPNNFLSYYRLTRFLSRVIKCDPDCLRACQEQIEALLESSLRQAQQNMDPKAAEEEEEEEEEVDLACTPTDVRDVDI

| Structure (SMILES) | IC50 [1] | IC50 [2] | IC50 [3, 11] [µM] | IC50 ([4]; HT-29, dihydrochloride) | IC50 ([4]; Homo sapiens, HT-29, HT-29) [µM] | IC50 ([5]; Homo sapiens, A549, A549) [µM] | IC50 [6, 12] [µM] | IC50 ([7]; DMS-114, dihydrochloride) [µM] | IC50 ([7]; Homo sapiens, DMS-114, DMS-114) [µM] | IC50 ([8]; Homo sapiens, PC-3, PC-3) [µM] | IC50 ([9]; Homo sapiens, DU-145, DU145) [µM] | IC50 [10, 13] [µM] | further results |
| --- | --- | --- | --- | --- | --- | --- | --- | --- | --- | --- | --- | --- | --- |
| COc1ccc(CCNc2nc(N[C@H]3CC[C@H](N)CC3)nc3c2ncn3C2CCCC2)cc1 [Example 14, 2-[Trans-(4-aminocyclohexyl)amino]-6-[2-(4-methoxyphenyl)ethylamino]-9-cyclopentylpurine dihydrochloride] | 0.1 µM | 1.5 µM | – | – | 2.7 | 1.4 | 2.4 | – | 1.3 | 2.3 | 2.8 | 3 | – |
| COCCNc1nc(N[C@H]2CC[C@H](N)CC2)nc2c1ncn2C1CCCC1 [Example 16, 2-[Trans-(4-aminocyclohexyl)amino]-6-(2-methoxyethylamino)-9-cyclopentylpurine dihydrochloride] | 0.055 µM and 0.03 µM | 0.23 µM and 0.28 µM | 9.2 | 6.3 µM | 6.4 | – | – | 4.4 | 4.8 | – | 2.5 | 4.7 | IC50 ([10]; MDA-MB-231, dihydrochloride): 4.1 µM; IC50 ([3]; MDA-MB-435, dihydrochloride): 7.6 µM; IC50 ([9]; DU145, dihydrochloride): 3.3 µM |
| CCN(CC)CCCNc1nc(N[C@H]2CC[C@H](N)CC2)nc2c1ncn2C1CCCC1 [Example 18, 2-[Trans-(4-aminocyclohexyl)amino]-6-[(3-diethylamino)propylamino]-9-cyclopentylpurine dihydrochloride] | 1 µM | 1.4 µM | – | – | – | – | – | – | – | – | – | – | – |
| COc1cccc(CNc2nc(N[C@H]3CC[C@H](N)CC3)nc3c2ncn3C(C)C)c1OC [Example 30, 2-[Trans-(4-aminocyclohexyl)amino]-6-[(2.3-dimethoxybenzyl)amino]-9-(2-propyl)purine dihydrochloride] | 1.4 µM | 2.4 µM | – | – | – | – | – | – | – | – | – | – | – |
| N[C@H]1CC[C@H](Nc2nc(NCCNc3ccccc3)c3ncn(C4CCCC4)c3n2)CC1 [Example 31, 2-[Trans-(4-aminocyclohexyl)amino]-6-[2-(phenylamino~ethylamino]-9-cyclopentylpurinetrihydrochloride] | 0.4 µM | 0.1 µM | 3.1 | – | 2.4 | 1.6 | – | – | 2.4 | 2.3 | 1.9 | 2.1 | IC50 ([10]; MDA-MB-231, trihydrochloride): 2.4 µM; IC50 ([3]; MDA-MB-435, trihydrochloride): 2.6 µM; IC50 ([4]; HT-29, trihydrochloride): 2.5 µM; IC50 ([5]; A549, trihydrochloride): 2.1 µM; IC50 ([7]; DMS-114, trihydrochloride): 1.8 µM; IC50 ([8]; PC-3, trihydrochloride): 1.9 µM; IC50 ([9]; DU145, trihydrochloride): 1.8 µM |

Now from value to compound, other results behind:

| IC50 [1] | IC50 [2] | IC50 [3, 11] [µM] | IC50 ([4]; HT-29, dihydrochloride) | IC50 ([4]; Homo sapiens, HT-29, HT-29) [µM] | IC50 ([5]; Homo sapiens, A549, A549) [µM] | IC50 [6, 12] [µM] | IC50 ([7]; DMS-114, dihydrochloride) [µM] | IC50 ([7]; Homo sapiens, DMS-114, DMS-114) [µM] | IC50 ([8]; Homo sapiens, PC-3, PC-3) [µM] | IC50 ([9]; Homo sapiens, DU-145, DU145) [µM] | IC50 [10, 13] [µM] | Structure (SMILES) | further results |
| --- | --- | --- | --- | --- | --- | --- | --- | --- | --- | --- | --- | --- | --- |
| 0.12 µM and 0.1 µM | 1.3 µM and 1 µM | 8 | 2.5 µM and 4.1 µM | 2.4 | 1.7 | – | – | – | – | – | – | N[C@H]1CC[C@H](Nc2nc(NNc3ccccc3Cl)c3ncn(C4CCCC4)c3n2)CC1 [Example 2, 2-[Trans-(4-aminocyclohexyl)amino]-6-(2-chlorophenylhydrazino)-9-cyclopentylpurine dihydrochloride] | IC50 ([3]; MDA-MB-435, dihydrochloride): 8.2 µM; IC50 ([5]; A549, dihydrochloride): 2.2 µM and 1.8 µM |
| 0.016 µM and 0.013 µM | 1.6 µM | – | 1.7 µM | 1.6 | 1.3 | 1.3 | 1.4 | 1.5 | 1.1 | 1.3 | – | N[C@H]1CC[C@H](Nc2nc(NCC3CCC(CO)CC3)c3ncn(C4CCCC4)c3n2)CC1 (stereo partly drawn) [Example 10, 2-[Trans-(4-aminocyclohexyl)amino]-6-[4-(hydroxymethyl)cyclohexanemethylamino]-9-cyclopentylpurine dihydrochloride] | IC50 ([6]; Colo-205, dihydrochloride): 2.6 µM; IC50 ([5]; A549, dihydrochloride): 2.6 µM; IC50 ([8]; PC-3, dihydrochloride): 1 µM; IC50 ([9]; DU145, dihydrochloride): 2.6 µM |
| 0.016 µM | 0.04 µM | – | – | 2.1 | – | 1.6 | 1.9 | 1.8 | 1.4 | – | – | COCCOCCCNc1nc(N[C@H]2CC[C@H](N)CC2)nc2c1ncn2C1CCCC1 [Example 15, 2-[Trans-(4-aminocyclohexyl)amino]-6-[3-(2-methoxyethoxy)propylamino]-9-cyclopentylpurine dihydrochloride] | IC50 ([6]; Colo-205, dihydrochloride): 1.7 µM; IC50 ([8]; PC-3, dihydrochloride): 1.2 µM |
